{"source": "ChEMBL document CHEMBL1240392", "about": "(Antimicrob Agents Chemother, 2010)", "key": {"[1]": {"system": "Acinetobacter baumannii", "assay": "Antibacterial activity against Acinetobacter baumannii 1327 infected in New Zealand rabbit meningitis model assessed as reduction in bacterial count in CSF at 25 mg/kg, iv measured after 6 hrs of last dose (RVb = 5.5)", "format": "functional"}, "[2]": {"system": "Acinetobacter baumannii", "assay": "Antimicrobial activity against Acinetobacter baumannii 506", "format": "functional"}, "[3]": {"system": "Acinetobacter baumannii", "assay": "Antimicrobial activity against Acinetobacter baumannii infected in C57BL/6 mouse model assessed as reduction in bacterial count in blood at total dose of 100 mg/kg/day, ip administered as four divided doses after 72 hrs", "format": "functional", "parameters": "scale not given: the % may be the effect or the level left", "conditions": "route intraperitoneal"}, "[4]": {"system": "Acinetobacter baumannii", "assay": "Antimicrobial activity against Acinetobacter baumannii 940 after 24 hrs by time-kill assay", "format": "functional, organism-based"}, "[5]": {"system": "Acinetobacter baumannii", "assay": "Antibacterial activity against Acinetobacter baumannii 1327 infected in New Zealand rabbit meningitis model assessed as reduction in bacterial count in CSF at 25 mg/kg, iv measured after 4 hrs of last dose (RVb = 5.2)", "format": "functional"}, "[6]": {"system": "Acinetobacter baumannii", "assay": "Antimicrobial activity against Acinetobacter baumannii 1417", "format": "functional"}, "[7]": {"system": "Acinetobacter baumannii", "assay": "Antimicrobial activity against Acinetobacter baumannii 940", "format": "functional"}, "[8]": {"system": "Acinetobacter baumannii", "assay": "Antimicrobial activity against Acinetobacter baumannii 1327", "format": "functional"}, "[9]": {"system": "Acinetobacter baumannii", "assay": "Antimicrobial activity against Acinetobacter baumannii infected in C57BL/6 mouse model assessed as reduction in bacterial count per gram of lung at total dose of 100 mg/kg/day, ip administered as four divided doses after 72 hrs (RVb = 10.6+/-0.27)", "format": "functional, organism-based"}, "[10]": {"assay": "T>MIC in Acinetobacter baumannii infected New Zealand rabbit meningitis model at 25 mg/kg, iv", "format": "functional"}, "[11]": {"system": "Acinetobacter baumannii", "assay": "Antibacterial activity against Acinetobacter baumannii 1327 infected in New Zealand rabbit meningitis model assessed as reduction in bacterial count in CSF at 25 mg/kg, iv measured after 2 hrs of last dose (RVb = 5.1)", "format": "functional"}, "[12]": {"system": "Acinetobacter baumannii", "assay": "Antimicrobial activity against Acinetobacter baumannii 1327 after 24 hrs by time-kill assay", "format": "functional, organism-based"}, "[13]": {"assay": "AUC in C57BL/6 mouse pneumonia model at 25 mg/kg, ip", "format": "ADME, organism-based", "parameters": "dose 25 mg/kg, route intraperitoneal", "conditions": "in vivo"}, "[14]": {"system": "Acinetobacter baumannii", "assay": "Antimicrobial activity against Acinetobacter baumannii 506 after 24 hrs by time-kill assay", "format": "functional, organism-based"}, "[15]": {"assay": "Cmax in New Zealand rabbit meningitis model at 25 mg/kg, iv", "format": "ADME, organism-based, Oryctolagus cuniculus", "parameters": "dose 25 mg/kg, route intravenous", "conditions": "in vivo"}, "[16]": {"system": "Oryctolagus cuniculus", "assay": "Antiinflammatory activity in Acinetobacter baumannii 1327-infected New Zealand rabbit meningitis model assessed as in WBC count at 25 mg/kg, iv after 6 hrs (RVb = 1 cells/ul)", "format": "functional"}, "[17]": {"system": "Acinetobacter baumannii", "assay": "Antibacterial activity against Acinetobacter baumannii infected in C57BL/6 mouse model assessed as survival rate at total dose of 100 mg/kg/day, ip administered as four divided doses measured after 72 hrs post last dose", "format": "functional", "conditions": "route intraperitoneal"}, "[18]": {"system": "Acinetobacter baumannii", "assay": "Antimicrobial activity against Acinetobacter baumannii 1417 after 24 hrs by time-kill assay", "format": "functional, organism-based"}, "[19]": {"assay": "AUC in New Zealand rabbit meningitis model at 25 mg/kg, iv", "format": "ADME, organism-based, Oryctolagus cuniculus", "parameters": "dose 25 mg/kg, route intravenous", "conditions": "in vivo"}, "[20]": {"assay": "T>MIC in Acinetobacter baumannii infected C57BL/6 mouse pneumonia model at 25 mg/kg, iv", "format": "functional"}, "[21]": {"assay": "Cmax in C57BL/6 mouse pneumonia model at 25 mg/kg, ip", "format": "ADME, organism-based", "parameters": "dose 25 mg/kg, route intraperitoneal", "conditions": "in vivo"}}, "note": "Calls of active or inactive are those of the source. No cut-off for these calls is given here."}
{"smiles": "CO[C@H]1/C=C/O[C@@]2(C)Oc3c(C)c(O)c4c(O)c(c(/C=N/N5CCN(C)CC5)c(O)c4c3C2=O)NC(=O)/C(C)=C\\C=C\\[C@H](C)[C@H](O)[C@@H](C)[C@@H](O)[C@@H](C)[C@H](OC(C)=O)[C@@H]1C", "note": "[RIFAMPIN]", "values": [{"measurement": "Activity", "setting": "[1]", "result": 3.5, "unit": "log10CFU/ml"}, {"measurement": "MBC", "setting": "[2]", "result": 4, "unit": "µg/mL"}, {"measurement": "MIC", "setting": "[2]", "result": 4, "unit": "µg/mL"}, {"measurement": "Activity", "setting": "[3]", "result": 78.6, "unit": "%"}, {"measurement": "Activity", "setting": "[4]", "result": "Active"}, {"measurement": "Activity", "setting": "[5]", "result": 4.5, "unit": "log10CFU/ml"}, {"measurement": "MBC", "setting": "[6]", "result": 8, "unit": "µg/mL"}, {"measurement": "MIC", "setting": "[6]", "result": 8, "unit": "µg/mL"}, {"measurement": "MBC", "setting": "[7]", "result": 4, "unit": "µg/mL"}, {"measurement": "MIC", "setting": "[7]", "result": 4, "unit": "µg/mL"}, {"measurement": "MBC", "setting": "[8]", "result": 8, "unit": "µg/mL"}, {"measurement": "MIC", "setting": "[8]", "result": 4, "unit": "µg/mL"}, {"measurement": "Activity", "setting": "[9]", "result": "Active"}, {"measurement": "T>MIC", "setting": "[10]", "result": 6.54, "unit": "h"}, {"measurement": "Activity", "setting": "[11]", "result": 5.1, "unit": "log10CFU/ml"}, {"measurement": "Activity", "setting": "[12]", "result": "Active"}, {"measurement": "AUC", "setting": "[13]", "result": 24800, "unit": "ng·h/mL"}, {"measurement": "Activity", "setting": "[14]", "result": "Active"}, {"measurement": "Cmax", "setting": "[15]", "result": 16600, "unit": "ng/mL"}, {"measurement": "Activity", "setting": "[16]", "result": 8.2, "unit": "%"}, {"measurement": "survival at 100 mg/kg/day", "setting": "[17]", "result": 71.4, "unit": "%"}, {"measurement": "Activity", "setting": "[18]", "result": "Active"}, {"measurement": "AUC", "setting": "[19]", "result": 40300, "unit": "ng·h/mL"}, {"measurement": "T>MIC", "setting": "[20]", "result": 7.5, "unit": "h"}, {"measurement": "Cmax", "setting": "[21]", "result": 15800, "unit": "ng/mL"}]}
